In brackets after ≈: the same amount, converted by molar mass.
Key:
Vero = assay: Cytotoxicity against African green monkey Vero cells assessed as cell viability measured after 24 hrs; assay type: cell-based; details: Chlorocebus sabaeus
[1] = system: Mycobacterium tuberculosis; assay: Antimycobacterial activity against Mycobacterium tuberculosis H37Rv under starvation condition assessed as inhibition of bacterial growth at 25 ug/ml measured after 3 days relative to control; assay type: functional; details: 72 h, time 3 day
[2] = system: Mycobacterium tuberculosis; assay: Antimycobacterial activity against Mycobacterium tuberculosis H37Rv under starvation condition assessed as inhibition of bacterial growth at 6.25 ug/ml measured after 9 days relative to control; assay type: functional; details: 216 h, time 9 day
[3] = system: Mycobacterium tuberculosis; assay: Antimycobacterial activity against Mycobacterium tuberculosis H37Rv assessed as inhibition of bacterial growth at 100 ug/ml measured after 3 days relative to control; assay type: functional; details: 72 h, time 3 day
[4] = system: Mycobacterium tuberculosis; assay: Antimycobacterial activity against Mycobacterium tuberculosis H37Rv assessed as inhibition of bacterial growth at 100 ug/ml measured after 9 days relative to control; assay type: functional; details: 216 h, time 9 day
[5] = Cytotoxicity against African green monkey Vero cells assessed as cell viability at 100 ug/ml measured after 24 hrs relative to control; assay type: cell-based; details: chlorocebus sabaeus, at 100 µg/mL, read-out: Activity
[6] = system: Mycobacterium tuberculosis; assay: Antimycobacterial activity against Mycobacterium tuberculosis H37Rv under starvation condition assessed as inhibition of bacterial growth at 100 ug/ml measured after 3 days relative to control; assay type: functional; details: 72 h, time 3 day
[7] = Selectivity index, ratio of IC50 for African green monkey Vero cells to MIC for antimycobacterial activity against Mycobacterium tuberculosis FURG-2; assay type: toxicity; details: read-out: Selectivity Index
[8] = system: Mycobacterium tuberculosis; assay: Antimycobacterial activity against Mycobacterium tuberculosis H37Rv under starvation condition assessed as inhibition of bacterial growth at 6.25 ug/ml measured after 1 day relative to control; assay type: functional; details: 24 h
[9] = system: Mycobacterium tuberculosis; assay: Antimycobacterial activity against Mycobacterium tuberculosis H37Rv assessed as inhibition of bacterial growth measured by Resazurin microtitre assay; assay type: functional
[10] = system: Mycobacterium tuberculosis; assay: Antimycobacterial activity against Mycobacterium tuberculosis H37Rv under starvation condition assessed as inhibition of bacterial growth at 25 ug/ml measured after 1 day relative to control; assay type: functional; details: 24 h
[11] = system: Mycobacterium tuberculosis; assay: Antimycobacterial activity against Mycobacterium tuberculosis H37Rv under starvation condition assessed as inhibition of bacterial growth at 25 ug/ml measured after 9 days relative to control; assay type: functional; details: 216 h, time 9 day
[12] = system: Mycobacterium tuberculosis; assay: Antimycobacterial activity against Mycobacterium tuberculosis H37Rv under starvation condition assessed as inhibition of bacterial growth at 6.25 ug/ml measured after 3 days relative to control; assay type: functional; details: 72 h, time 3 day
[13] = system: Mycobacterium tuberculosis; assay: Antimycobacterial activity against Mycobacterium tuberculosis H37Rv assessed as inhibition of bacterial growth at 100 ug/ml measured after 24 hrs relative to control; assay type: functional
[14] = system: Mycobacterium tuberculosis; assay: Antimycobacterial activity against Mycobacterium tuberculosis H37Rv under starvation condition assessed as inhibition of bacterial growth at 100 ug/ml measured after 1 day relative to control; assay type: functional; details: 24 h
[15] = system: Mycobacterium tuberculosis; assay: Antimycobacterial activity against Mycobacterium tuberculosis H37Rv under starvation condition assessed as inhibition of bacterial growth at 100 ug/ml measured after 9 days relative to control; assay type: functional; details: 216 h, time 9 day

Row | Structure (SMILES) | IC50 (Vero) | inhibition at 25 µg/mL [1] | inhibition at 6.25 µg/mL [2] | inhibition at 100 µg/mL [3] | inhibition at 100 µg/mL [4] | viability at 24 h, 100 ug/ml [5] | inhibition at 100 µg/mL [6] | selectivity ratio [7] | inhibition at 6.25 µg/mL [8] | MIC [9] | inhibition at 25 µg/mL [10] | inhibition at 25 µg/mL [11] | inhibition at 6.25 µg/mL [12] | inhibition at 100 µg/mL [13] | inhibition at 100 µg/mL [14] | inhibition at 100 µg/mL [15]
1 | O=C(C1=CN(CCc2ccccc2)C(NCCc2ccccc2)CC1)C(F)(F)F (configuration not stated) | 140 µg/mL (≈ 347 µM) | 99.5% | 100% | 99.9% | 100% | 80% | 99.9% | > 10 | 0% | 25 µg/mL (≈ 62.1 µM) | 0% | 100% | 0% | 89.5% | 97.5% | 100%
2 | CO[C@H]1/C=C/O[C@@]2(C)Oc3c(C)c(O)c4c(O)c(c(/C=N/N5CCN(C)CC5)c(O)c4c3C2=O)NC(=O)/C(C)=C\C=C\[C@H](C)[C@H](O)[C@@H](C)[C@@H](O)[C@@H](C)[C@H](OC(C)=O)[C@@H]1C [RIFAMPIN] |  |  |  |  |  |  |  |  |  | 256 µg/mL (≈ 311 µM) |  |  |  |  |  | 

— ChEMBL document CHEMBL4834440, “2,2,2-trifluoro-1-(1,4,5,6-tetrahydropyridin-3-yl)ethanone derivative as efflux pump inhibitor in Mycobacterium tuberculosis” (Bioorg Med Chem Lett, 2021)
